According to patent US20240109903A1, “SUBSTITUTED HETEROCYCLES FOR TREATING CANCER” (Northwestern University, priority 2022, published 2024):
Like-named read-outs stand apart in the source and are kept apart here.

Columns and labels:
Assay type in all cases: cell-based
[1] = test system: HL-60(TB); test: NCI 60 five-dose screen HL-60(TB); conditions: Homo sapiens; for CC50: read-out: LC50 (the source's name) (converted)
[2] = test system: A549/ATCC; test: NCI 60 five-dose screen A549/ATCC; conditions: Homo sapiens; for CC50: read-out: LC50 (the source's name) (converted)
[3] = test system: HOP-62; test: NCI 60 five-dose screen HOP-62; conditions: Homo sapiens; for CC50: read-out: LC50 (the source's name) (converted)
[4] = test system: NCI-H460; test: NCI 60 five-dose screen NCI-H460; conditions: Homo sapiens; for CC50: read-out: LC50 (the source's name) (converted)
[5] = test system: HCT-15; test: NCI 60 five-dose screen HCT-15; conditions: Homo sapiens; for CC50: read-out: LC50 (the source's name) (converted)
[6] = test system: SF-268; test: NCI 60 five-dose screen SF-268; conditions: Homo sapiens; for CC50: read-out: LC50 (the source's name) (converted)
[7] = test system: SF-539; test: NCI 60 five-dose screen SF-539; conditions: Homo sapiens; for CC50: read-out: LC50 (the source's name) (converted)
[8] = test system: SNB-75; test: NCI 60 five-dose screen SNB-75; conditions: Homo sapiens; for CC50: read-out: LC50 (the source's name) (converted)
[9] = test system: SK-MEL-2; test: NCI 60 five-dose screen SK-MEL-2; conditions: Homo sapiens; for CC50: read-out: LC50 (the source's name) (converted)
[10] = test system: OVCAR-4; test: NCI 60 five-dose screen OVCAR-4; conditions: Homo sapiens; for CC50: read-out: LC50 (the source's name) (converted)
[11] = test system: OVCAR-5; test: NCI 60 five-dose screen OVCAR-5; conditions: Homo sapiens; for CC50: read-out: LC50 (the source's name) (converted)
[12] = test system: SN12C; test: NCI 60 five-dose screen SN12C; conditions: Homo sapiens; for CC50: read-out: LC50 (the source's name) (converted)
[13] = test system: T-47D; test: NCI 60 five-dose screen T-47D; conditions: Homo sapiens, T47D; for CC50: read-out: LC50 (the source's name)

FC(F)(F)c1cc2c(Cl)ncnc2n1CCC1CCOCC1 [NUCC-0226674]
GI50 ([1]; five-dose): 2.24 µM | IC50 ([1]; five-dose): 4.17 µM | IC (TGI) ([1]; five-dose): 5.01 µM | CC50 ([1]; five-dose): 44.7 µM | GI50 ([2]; five-dose): 21.9 µM | IC50 ([2]; five-dose): 34.7 µM | IC (TGI) ([2]; five-dose): 56.2 µM | CC50 ([2]; five-dose): ≥ 100 µM | GI50 ([3]; five-dose): 17 µM | IC50 ([3]; five-dose): 33.1 µM | IC (TGI) ([3]; five-dose): 35.5 µM | CC50 ([3]; five-dose): 72.4 µM | GI50 ([4]; five-dose): 2.4 µM | IC50 ([4]; five-dose): 3.55 µM | IC (TGI) ([4]; five-dose): 5.62 µM | CC50 ([4]; five-dose): 22.4 µM | GI50 ([5]; five-dose): 2.95 µM | IC50 ([5]; five-dose): 3.8 µM | IC (TGI) ([5]; five-dose): 11 µM | CC50 ([5]; five-dose): 41.7 µM | GI50 ([6]; five-dose): 2.45 µM | IC50 ([6]; five-dose): 4.57 µM | IC (TGI) ([6]; five-dose): 7.24 µM | CC50 ([6]; five-dose): 44.7 µM | GI50 ([7]; five-dose): 13.8 µM | IC50 ([7]; five-dose): 24.5 µM | IC (TGI) ([7]; five-dose): 27.5 µM | CC50 ([7]; five-dose): 56.2 µM | GI50 ([8]; five-dose): 3.09 µM | IC50 ([8]; five-dose): 15.5 µM | IC (TGI) ([8]; five-dose): 15.1 µM | CC50 ([8]; five-dose): 39.8 µM | GI50 ([9]; five-dose): 13.2 µM | IC50 ([9]; five-dose): 29.5 µM | IC (TGI) ([9]; five-dose): 28.2 µM | CC50 ([9]; five-dose): 60.3 µM | GI50 ([10]; five-dose): 18.6 µM | IC50 ([10]; five-dose): 38 µM | IC (TGI) ([10]; five-dose): 50.1 µM | CC50 ([10]; five-dose): ≥ 100 µM | GI50 ([11]; five-dose): 24 µM | IC50 ([11]; five-dose): 45.7 µM | IC (TGI) ([11]; five-dose): 81.3 µM | CC50 ([11]; five-dose): ≥ 100 µM | GI50 ([12]; five-dose): 6.61 µM | IC50 ([12]; five-dose): 12.6 µM | IC (TGI) ([12]; five-dose): 20 µM | CC50 ([12]; five-dose): 46.8 µM | GI50 ([13]; five-dose): 20.4 µM | IC50 ([13]; five-dose): 47.9 µM | IC (TGI) ([13]; five-dose): 60.3 µM | CC50 ([13]; five-dose): ≥ 100 µM

Fc1ccc(N2CC(Cn3c(C(F)(F)F)cc4c(Cl)ncnc43)C2)c(F)c1 [NUCC-0226695]
GI50 [1]: 2.24 µM | IC50 [1]: 3.89 µM | IC (TGI) [1]: 6.31 µM | CC50 [1]: ≥ 100 µM | GI50 [2]: 17.4 µM | IC50 [2]: 29.5 µM | IC (TGI) [2]: 35.5 µM | CC50 [2]: 74.1 µM | GI50 [3]: 17 µM | IC50 [3]: 32.4 µM | IC (TGI) [3]: 33.9 µM | CC50 [3]: 66.1 µM | GI50 [4]: 3.98 µM | IC50 [4]: 4.68 µM | IC (TGI) [4]: 14.5 µM | CC50 [4]: 44.7 µM | GI50 [5]: 1.78 µM | IC50 [5]: 3.09 µM | IC (TGI) [5]: 3.55 µM | CC50 [5]: 7.08 µM | GI50 [6]: 3.16 µM | IC50 [6]: 5.62 µM | IC (TGI) [6]: 11.2 µM | CC50 [6]: 47.9 µM | GI50 [7]: 13.8 µM | IC50 [7]: 24.5 µM | IC (TGI) [7]: 28.2 µM | CC50 [7]: 58.9 µM | GI50 [8]: 12 µM | IC50 [8]: 25.1 µM | IC (TGI) [8]: 24.5 µM | CC50 [8]: 51.3 µM | GI50 [9]: 15.8 µM | IC50 [9]: 31.6 µM | IC (TGI) [9]: 30.9 µM | CC50 [9]: 61.7 µM | GI50 [10]: 12.9 µM | IC50 [10]: 24.5 µM | IC (TGI) [10]: 26.9 µM | CC50 [10]: 56.2 µM | GI50 [11]: 17.8 µM | IC50 [11]: 32.4 µM | IC (TGI) [11]: 37.2 µM | CC50 [11]: 77.6 µM | GI50 [12]: 1.95 µM | IC50 [12]: 3.31 µM | IC (TGI) [12]: 5.01 µM | CC50 [12]: 16.2 µM | GI50 [13]: 13.8 µM | IC50 [13]: 43.7 µM | IC (TGI) [13]: 67.6 µM | CC50 [13]: ≥ 100 µM

OC1CCC(Cn2c(C(F)(F)F)cc3c(Cl)ncnc32)CC1 (stereo not shown) [NUCC-0226689]
GI50 ([1]; five-dose): 2.63 µM | IC50 ([1]; five-dose): 5.01 µM | IC (TGI) ([1]; five-dose): 8.91 µM | CC50 ([1]; five-dose): ≥ 100 µM | GI50 ([2]; five-dose): 30.9 µM | IC50 ([2]; five-dose): 43.7 µM | IC (TGI) ([2]; five-dose): 100 µM | CC50 ([2]; five-dose): ≥ 100 µM | GI50 ([3]; five-dose): 20 µM | IC50 ([3]; five-dose): 42.7 µM | IC (TGI) ([3]; five-dose): 57.5 µM | CC50 ([3]; five-dose): ≥ 100 µM | GI50 ([4]; five-dose): 4.79 µM | IC50 ([4]; five-dose): 5.5 µM | IC (TGI) ([4]; five-dose): 16.6 µM | CC50 ([4]; five-dose): 53.7 µM | GI50 ([5]; five-dose): 3.72 µM | IC50 ([5]; five-dose): 4.79 µM | IC (TGI) ([5]; five-dose): 20 µM | CC50 ([5]; five-dose): ≥ 100 µM | GI50 ([6]; five-dose): 2.51 µM | IC50 ([6]; five-dose): 4.47 µM | IC (TGI) ([6]; five-dose): 6.92 µM | CC50 ([6]; five-dose): 37.2 µM | GI50 ([7]; five-dose): 17.8 µM | IC50 ([7]; five-dose): 32.4 µM | IC (TGI) ([7]; five-dose): 38.9 µM | CC50 ([7]; five-dose): 85.1 µM | GI50 ([8]; five-dose): 10.7 µM | IC50 ([8]; five-dose): 23.4 µM | IC (TGI) ([8]; five-dose): 22.9 µM | CC50 ([8]; five-dose): 49 µM | GI50 ([9]; five-dose): 13.2 µM | IC50 ([9]; five-dose): 28.8 µM | IC (TGI) ([9]; five-dose): 28.2 µM | CC50 ([9]; five-dose): 58.9 µM | GI50 ([10]; five-dose): 17.8 µM | IC50 ([10]; five-dose): 37.2 µM | IC (TGI) ([10]; five-dose): 46.8 µM | CC50 ([10]; five-dose): ≥ 100 µM | GI50 ([11]; five-dose): 100 µM | IC50 ([11]; five-dose): 100 µM | IC (TGI) ([11]; five-dose): 100 µM | CC50 ([11]; five-dose): ≥ 100 µM | GI50 ([12]; five-dose): 5.37 µM | IC50 ([12]; five-dose): 10 µM | IC (TGI) ([12]; five-dose): 20 µM | CC50 ([12]; five-dose): 53.7 µM | GI50 ([13]; five-dose): 26.3 µM | IC50 ([13]; five-dose): 91.2 µM | IC (TGI) ([13]; five-dose): 100 µM | CC50 ([13]; five-dose): ≥ 100 µM

FC(F)(F)c1cc2c(Cl)ncnc2n1CCN1CCOCC1 [NUCC-0226680]
GI50 ([1]; five-dose): 2.09 µM | IC50 ([1]; five-dose): 3.89 µM | IC (TGI) ([1]; five-dose): 6.03 µM | CC50 ([1]; five-dose): 66.1 µM | GI50 ([2]; five-dose): 100 µM | IC50 ([2]; five-dose): 100 µM | IC (TGI) ([2]; five-dose): 100 µM | CC50 ([2]; five-dose): ≥ 100 µM | GI50 ([3]; five-dose): 38.9 µM | IC50 ([3]; five-dose): 100 µM | IC (TGI) ([3]; five-dose): 100 µM | CC50 ([3]; five-dose): ≥ 100 µM | GI50 ([4]; five-dose): 23.4 µM | IC50 ([4]; five-dose): 28.2 µM | IC (TGI) ([4]; five-dose): 100 µM | CC50 ([4]; five-dose): ≥ 100 µM | GI50 ([5]; five-dose): 3.31 µM | IC50 ([5]; five-dose): 4.27 µM | IC (TGI) ([5]; five-dose): 17.8 µM | CC50 ([5]; five-dose): ≥ 100 µM | GI50 ([6]; five-dose): 14.8 µM | IC50 ([6]; five-dose): 28.2 µM | IC (TGI) ([6]; five-dose): 33.9 µM | CC50 ([6]; five-dose): 77.6 µM | GI50 ([7]; five-dose): 18.2 µM | IC50 ([7]; five-dose): 33.9 µM | IC (TGI) ([7]; five-dose): 42.7 µM | CC50 ([7]; five-dose): 97.7 µM | GI50 ([8]; five-dose): 10.2 µM | IC50 ([8]; five-dose): 23.4 µM | IC (TGI) ([8]; five-dose): 22.4 µM | CC50 ([8]; five-dose): 49 µM | GI50 ([9]; five-dose): 17.4 µM | IC50 ([9]; five-dose): 33.9 µM | IC (TGI) ([9]; five-dose): 33.1 µM | CC50 ([9]; five-dose): 64.6 µM | GI50 ([10]; five-dose): 33.1 µM | IC50 ([10]; five-dose): 100 µM | IC (TGI) ([10]; five-dose): 100 µM | CC50 ([10]; five-dose): ≥ 100 µM | GI50 ([11]; five-dose): 100 µM | IC50 ([11]; five-dose): 100 µM | IC (TGI) ([11]; five-dose): 100 µM | CC50 ([11]; five-dose): ≥ 100 µM | GI50 ([12]; five-dose): 19.5 µM | IC50 ([12]; five-dose): 38.9 µM | IC (TGI) ([12]; five-dose): 100 µM | CC50 ([12]; five-dose): ≥ 100 µM | GI50 ([13]; five-dose): 38.9 µM | IC50 ([13]; five-dose): 100 µM | IC (TGI) ([13]; five-dose): 100 µM | CC50 ([13]; five-dose): ≥ 100 µM
